# Reference: patent US9180183B2, “Phospholipid drug analogs” (Telormedix SA, priority 2010, dated 2015)
# Columns and labels:
# [1] = test system: HLA-DR+/CD11c+/CD123- mDCs; test: FACS analysis of myeloid DC activation in whole blood; format: cell-based, human; conditions: 24 hours; 0.1 and 0.5 uM; three donors
# Method: The FACS analysis for donor 1 and donor 2 was made on another day than donor 3. The compound concentrations were as follows:
# The FACS analysis was used to identify whether the test compounds could induce activation of B cells, and two different subsets of dendritic cells, namely the myeloid CD11c+/CD123− DCs and the plasmacytoid CD11c−/CD123+ DCs. The following markers were studied to identify the activation status of the different subsets:
# The FACS staining was performed according to the manufacturer's instructions. Lysis of red blood cells was performed before FACS staining in order to minimize auto-florescence. To include as many B cells and DCs in the study as possible the FACS analyses were performed on 500,000 cells in total for each staining. A P1 gate was set only to include relevant cells on FSC vs. SSC (see FIGS. 12-15). The results of the individual analysis were present as Mean Fluorescence Intensity
# The analysis of myeloid DCs was based on HLA-DR+/CD11c+/CD123−cells, thus all analyzed cells was included in the HLA-DR+ (P3) gate and CD11c+/CD123− (Q4) gate (see gates in FIGS. 13-15).
# [2] = test system: Cutaneous Squamous Cell Carcinoma (SCC) cell lines SCL-I, SCL-II, SCC-12, SCC-13; test: Proapoptotic and cytotoxic effects on cutaneous SCC cell lines (real-time cell analysis, microscopy); format: cell-based, human; conditions: cutaneous SCC cell lines
# Method: SCC cells are grown under standard conditions (10% FBS).
# Time and dose dependency of effects on total cell numbers have been investigated by real-time cell analysis, which is based on continuous monitoring of electric conductance in microtiter wells (E-plates, Roche), which corresponds to the cell numbers. […] For these assays 4 cell lines should be used to obtain a representative overview on the effects on SCC cells.
# [3] = test system: AY-27 rat bladder cancer cell-line
# [4] = test system: 73 primary molecular targets (human recombinant receptor types and subtypes or membrane fraction from rodent tissue homogenates); test: Radioligand binding assay among 73 primary molecular targets; conditions: SC12 at 30 microM
# [5] = Serum exposure after intravesical chronic treatment in mouse
# Method: Serum samples were taken at time points: day 0, 2 hours, day 1, 24 hours, and day 6, 2 hours.
# Samples were evaporated and re-suspended in 70 microliters of acetonitrile/methanol 1:1.
# [6] = test system: human PBMCs; test: IL-6 secretion in human PBMCs, two batches of Compound A and SC12; format: cell-based; conditions: PBMCs; 10-1-0,1-0.01 micromolar
# Method: PBMCs were purified from two donors and plated into 96 well plates at 2×10^5 cells/well in RPMI media including human 2% heat inactivated AB serum, glutamine, Pen-strep and R-mercapto-ethanol. […] The conditioned media was removed for ELISA analyses for IL-6, and the EC50 value determined for each compound and each batch.
# All compounds were tested in four concentrations (10-1-0, 1-0.01 micromolar).
# Concentrations of IL-6 were determined by ELISA from R&D Systems using the Microsoft Excel software. The results were analyzed in Graph Pad Prism in order to prepare dose-response curves, and for determination of EC50 values.
# [7] = test system: PBMCs; test: IL-6 and TNF-alpha secretion in PBMCs (ELISA), Model 2; format: cell-based, human; conditions: three donors
# [8] = test system: HLA-DR+/CD20+ B cells; test: FACS analysis of B cell activation in whole blood; format: cell-based, human; conditions: 24 hours; 2 and 10 uM; three donors
# Method: The FACS staining was performed according to the manufacturer's instructions. Lysis of red blood cells was performed before FACS staining in order to minimize auto-florescence. To include as many B cells and DCs in the study as possible the FACS analyses were performed on 500,000 cells in total for each staining. […] The results of the individual analysis were present as Mean Fluorescence Intensity
# The analysis of expression of the activation marker CD40 on B cells was made on double positive HLA-DR (MHC class II) (P4 gate) and CD20 cells (B cell marker) (P8 gate).
# [9] = test system: human whole blood; test: Cytokine secretion in human whole blood assay (ELISA); format: cell-based; conditions: for IL-12p40 levels: all donors
# Method: Before drawing the blood, the compounds were added to 96 well round bottom plates in a 10× diluted sample at 20 ul. The compounds were diluted in RPMI media without serum but with antibiotics. Antibiotics were added at a 10× concentration. After drawing the blood, the whole blood sample was gently mixed to obtain a homogeneous sample, and 180 ul was added to each well.
# All compounds were setup in concentrations at 0-0.01-0.03-0.1-0.5-2.0-10.0 micromolar as the final concentration. Vehicle control was DMSO control, where we used the highest concentration used for the compounds. After addition of blood, all plates were gently agitated at 37° C. and 5% CO2 until harvest.
# Concentrations of cytokines were determined by ELISA from R&D Systems. The results were analyzed in Graph Pad Prism in order to prepare dose-response curves, and for determination of EC50 values. FACS analysis was made by using Becton-Dickinson FACSDiva software and subsequently illustrated in Graph Pad Prism.
# [10] = test system: recombinant protein antigens from Plasmodium falciparum and Mycobacterium ulcerans; test: Pilot immunization study with adjuvanted protein antigens in mice; format: in vivo; conditions: three s.c. immunizations with 10 nMol adjuvant
# Method: A pilot immunization study was conducted using Compound A and SC12 adjuvanted protein antigens. The immunization experiments were performed with two recombinant proteins expressed in E. coli. One antigen was derived from the malaria parasite Plasmodium falciparum and the other one from Mycobacterium ulcerans, which cause the ulcerative skin disease Buruli ulcer.
# [11] = Plasma stability in rat plasma (first experiment); format: in vitro ADME
# Method: (§1) A 10 μl of MeOH was added to improve solubility. […] The supernatant fractions were analyzed by LC/MS/MS. […] Percent loss of substrate in incubations was determined to estimate the in vitro half life of the test compound. Samples were analyzed on a UPLC (Waters) interfaced with a Premiere XE Triple Quadrupole (Waters).
# [12] = Plasma stability in rabbit plasma (first experiment); format: in vitro ADME
# Method: as §1
# [13] = HPLC retest of stored compound A samples; format: physicochemical; conditions: for HPLC purity: room temperature, natural light
# Method: (§2) At this point, a stability study was conducted on batch CH730/16/8g. The following conditions of storage were tested: • solid at room temperature (about 25° C.) and in presence of light • solid at external temperature (28-35° C.) under the sun-light • solid at +4° C. • solution in chloroform at room temperature and in presence of light • solution in chloroform at +4° C. • solution in chloroform at external temperature (28-35° C.) under the sun-light
# [14] = Plasma stability in human plasma (first experiment); format: in vitro ADME
# Method: as §1
# [15] = Plasma stability in minipig plasma (first experiment); format: in vitro ADME
# Method: as §1
# [16] = Stability study of compound A under storage conditions (HPLC); format: physicochemical
# Method: as §2
# [17] = published data, Clarke et al. 2009; cited from earlier work
# [18] = Solubility in organic solvents; format: physicochemical; conditions: methanol, ethanol, dichloromethane, ethyl acetate, acetonitrile, acetone, chloroform
# [19] = whole blood, 6 hours incubation
# [20] = whole blood, 24 hours incubation
# [21] = batch CH730/16/8G, solid, external T and light, t = 2 days
# [22] = batch CH730/16/8G, solid, external T and light, t = 6 days
# [23] = batch CH730/16/8G, solution in CHCl3, RT and light, t = 0
# [24] = batch CH730/16/8G, solution in CHCl3, RT and light, t = 1 day
# [25] = batch CH730/16/8G, solution in CHCl3, RT and light, t = 5 days
# [26] = batch CH730/16/8G, solution in CHCl3, RT and light, t = 7 days
# [27] = batch CH730/16/8G, solution in CHCl3, RT and light, t = 11 days
# [28] = batch CH730/16/8G, solution in CHCl3, T about 30° C. without light, t = 1 day
# [29] = batch CH730/16/8G, solution in CHCl3, external T and light, t = 1 day
smiles,measurement,setting,value
"CC(C)Cn1cnc2c(N)nc3ccccc3c21 [Imiquimod, reference compound]","CD80 expression in mDCs (MFI, in words)",[1],weak expression of CD80 in donor 1 and 2
same,"cell numbers (real-time cell analysis, electric conductance)",[2],reduced cell numbers
same,Range of weight of the rat bladders,"[3]; 0.5 ml intravesical instillation (Imiquimod 0.1%, SC12 0.38%) on day 2 and 5, day 12",0.0814-0.1891 grams
same,signs of toxicity (in words),[3]; intravesical instillation on day 2 and 5,No signs of toxicity
same,Tumor free (% of rats),"[3]; of 14 rats per group, day 12",35.7%
same,Tumor free (number of rats),"[3]; of 14 rats per group, day 12",5
same,pT2 Tumor (% of rats),"[3]; of 14 rats per group, day 12",64.3%
same,pT2 Tumor (number of rats),"[3]; of 14 rats per group, day 12",9
same,binding to receptors associated with pain-related syndromes (e.g. adenosine and sodium channel),[4],shown to bind
same,"Imiquimod levels in serum, Mean ± S.D.","[5]; intravesical 0.1%, Day 1, 24 hours, LLOQ 2.5 ng/ml",<LLOQ
same,accumulation in serum (in words),"[5]; intravesical chronic treatment, 6 days",no accumulation
same,IL-6 induction (in words),[6],only active in inducing IL-6 at the highest concentration
same,induction of IL-6 and TNF-alpha secretion (in words),[7],weak ability to induce the cytokines
same,"CD40 expression (MFI, in words)",[8],increased expression in all three donors
same,induction of DC secreted cytokines (in words),[9]; supernatant from whole blood cell assays,weak inducer
same,IL-6 secretion (in words),"[9]; whole blood, 6 h incubation",low and insignificant amounts of IL-6
same,IFN-alpha secretion (in words),[9]; [19],did not induce IFN-alpha secretion
same,IL-10 production (in words),[9]; [19],no IL-10 production was seen
same,IL-12p40 secretion (in words),[9]; [19],did not induce IL-12p40 secretion
same,IL-12p40 secretion (in words),[9]; [20],did not induce IL-12p40
"CCCCCCCC/C=C\CCCCCCCC(=O)OCC(COP(=O)(O)OCCNC(=O)c1ccc(Cn2c(=O)[nH]c3c(N)nc(OCCOC)nc32)cc1)OC(=O)CCCCCCC/C=C\CCCCCCCC (stereo not shown) [Compound A, 2-(4-((6-amino-2-(2-methoxyethoxy)-8-oxo-7H-purin-9(8H)-yl)methyl)benzamido)ethyl 2,3-bis(oleoyloxy)propyl phosphate]",local side effects,[10],No local side effects
same,stability classification,[11],unstable
same,stability classification,[12],unstable
same,stability (in words),[13]; at room temperature and/or in the presence of light,not a stable compound
same,HPLC purity,"[13]; Test date: Jun. 10, 2009",Purity: 57.5%
same,HPLC purity,"[13]; Test date: Jun. 11, 2009",Purity: 81.4%
same,HPLC purity,"[13]; Test date: May 20, 2009",Purity: 89.6%
same,HPLC purity,"[13]; tested Jun. 10, 2009, Retest date: Jun. 16, 2009",Purity: 44.8%
same,HPLC purity,"[13]; tested Jun. 11, 2009, Retest date: Jun. 18, 2009",Purity: 71.5%
same,HPLC purity,"[13]; tested May 20, 2009, Retest date: Jun. 12, 2009",Purity: 67.2%
same,HPLC purity,"[13]; tested May 20, 2009, Retest date: Jun. 17, 2009",Purity: 58.9%
same,stability classification,[14],unstable
same,range of IL-6 secretion,"[9]; whole blood, three donors",4000 to 8000 pg/mL
same,ranges of IFN-alpha secreted,"[9]; whole blood, three donors",1000 to 2000 pg/mL
same,IL-12p40 levels,[9]; [19],8.000 to 12.000 pg/mL
same,IL-12p40 levels,[9]; [20],20.000 to 25.000 pg/mL
same,stability classification,[15],unstable
same,degradation (in words),[16]; T>25° C. and in the presence of light,rapid degradation
same,HPLC % at RRT = 1 (main peak),[16]; [21],37.6%
same,HPLC % of impurity at RRT = 1.06,[16]; [21],9.2%
same,HPLC % of impurity at RRT = 1.11,[16]; [21],27.9%
same,HPLC % of impurity at RRT = 1.26,[16]; [21],14.8%
same,HPLC % at RRT = 1 (main peak),[16]; [22],35.4%
same,HPLC % of impurity at RRT = 1.06,[16]; [22],17.8%
same,HPLC % of impurity at RRT = 1.14,[16]; [22],7.2%
same,HPLC % of impurity at RRT = 1.17,[16]; [22],12.6%
same,HPLC % of impurity at RRT = 1.28,[16]; [22],5.5%
same,HPLC % at RRT = 1 (main peak),[16]; [23],81.4%
same,HPLC % of impurity at RRT = 1.11,[16]; [23],8.6%
same,HPLC % of impurity at RRT = 1.23,[16]; [23],4.2%
same,HPLC % at RRT = 1 (main peak),[16]; [24],80.9%
same,HPLC % of impurity at RRT = 1.11,[16]; [24],8.7%
same,HPLC % of impurity at RRT = 1.24,[16]; [24],4.4%
same,HPLC % at RRT = 1 (main peak),[16]; [25],79.3%
same,HPLC % of impurity at RRT = 1.10,[16]; [25],9.9%
same,HPLC % of impurity at RRT = 1.24,[16]; [25],4.2%
same,HPLC % at RRT = 1 (main peak),[16]; [26],80.5%
same,HPLC % of impurity at RRT = 1.11,[16]; [26],8.7%
same,HPLC % of impurity at RRT = 1.27,[16]; [26],3.9%
same,HPLC % at RRT = 1 (main peak),[16]; [27],82.0%
same,HPLC % of impurity at RRT = 1.16,[16]; [27],6.9%
same,HPLC % of impurity at RRT = 1.29,[16]; [27],3.7%
same,HPLC % at RRT = 1 (main peak),[16]; [28],80.7%
same,HPLC % of impurity at RRT = 1.11,[16]; [28],8.6%
same,HPLC % of impurity at RRT = 1.27,[16]; [28],3.8%
same,HPLC % at RRT = 1 (main peak),[16]; [29],80.3%
same,HPLC % of impurity at RRT = 1.11,[16]; [29],8.0%
same,HPLC % of impurity at RRT = 1.27,[16]; [29],3.2%
CCOCc1nc2c(N)nc3ccccc3c2n1CC(C)(C)O [Resiquimod],IFN-alpha secreted,[17],< 200 pg/mL
"COCCOc1nc(N)c2[nH]c(=O)n(Cc3ccc(C(=O)O)cc3)c2n1 [Acid 7, 4-((6-amino-2-(2-methoxyethoxy)-8-oxo-7H-purin-9(8H)-yl)methyl)benzoic acid]",solubility in common solvents,[18],not soluble
